Each structure is given as a SMILES string. Like-named read-outs stand apart in the source and are kept apart here.

By remaining activity is commonly meant what remains of the control signal, in per cent. Low readings indicate little activity left, high ones much activity left. Usually Ki stands for the equilibrium dissociation constant of an inhibitor or competing ligand from its target.

One experiment deals with T1, rat brain FAAH (Rattus norvegicus, UniProt P97612).
T1 construct: from tissue; host or cells: rat brain (minus cerebellum), washed membrane pellet
T1 sequence (P97612 1-579): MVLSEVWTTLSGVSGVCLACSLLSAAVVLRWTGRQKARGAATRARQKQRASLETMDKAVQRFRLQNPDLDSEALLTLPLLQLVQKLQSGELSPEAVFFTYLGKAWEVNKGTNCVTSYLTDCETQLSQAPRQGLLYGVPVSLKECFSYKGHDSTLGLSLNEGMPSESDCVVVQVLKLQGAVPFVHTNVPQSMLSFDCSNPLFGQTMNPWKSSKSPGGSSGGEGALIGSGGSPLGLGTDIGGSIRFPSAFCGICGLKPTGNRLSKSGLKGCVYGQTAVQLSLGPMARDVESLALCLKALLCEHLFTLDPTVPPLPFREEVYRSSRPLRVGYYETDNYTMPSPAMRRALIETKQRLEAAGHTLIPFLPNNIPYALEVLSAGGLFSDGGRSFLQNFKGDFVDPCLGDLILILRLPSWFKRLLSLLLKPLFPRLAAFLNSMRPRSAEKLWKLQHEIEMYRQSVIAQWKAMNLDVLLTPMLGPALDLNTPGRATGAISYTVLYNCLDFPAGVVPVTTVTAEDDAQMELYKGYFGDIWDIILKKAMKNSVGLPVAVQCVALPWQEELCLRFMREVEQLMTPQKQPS
Put plainly: Inhibition of [3H]AEA hydrolysis in rat brain homogenates. The class given is biochemical. The following applies: for remaining activity at 0.7 µM: 0.7 μM inhibitor. As for the experimental part: (§1) Brains (minus cerebella) from adult Wistar or Sprague-Dawley rats (killed by decapitation) and from male B6CBAF1/J mice (killed by cervical dislocation), stored at -80°C, were thawed, weighed and homogenized in cold buffer (20 mM HEPES, 1 mM MgCl2 pH 7.0). Homogenates were centrifuged (35,000 g at 4°C for 20 min) before the pellet was resuspended in cold homogenization buffer. Centrifugation and resuspension was repeated twice. The suspension was incubated at 37°C for 15 min to degrade any endogenous substrate able to interfere with the FAAH assay. After centrifugation (35,000 g at 4°C for 20 min), the pellet was resuspended in cold buffer (50 mM Tris-HCl, 1mM EDTA, 3 mM MgCl2, pH 7.4). The protein concentration was determined according to [27] after which the samples were frozen in aliquots at -80°C.
(§2) The assays were performed according to [28] with minor modifications. Briefly, homogenates or cell lysates in assay buffer (10 mM Tris-HCl, 1mM EDTA, pH 7.4) were mixed with substance dissolved in ethanol on ice. Hydrolysis reactions were initiated by addition of substrate ([^3H]AEA in 10 mM Tris-HCl, 1mM EDTA, pH 7.4 containing 10 mg ml^-1 fatty acid-free bovine serum, assay concentration 0.5 μM unless otherwise stated) and incubation at 37°C. For the brain homogenates, hydrolysis at 37°C was allowed to proceed for 10 min (assay volume was 200 μL, with 1 and 0.3 μg/assay protein concentrations of the rat and mouse homogenates, respectively). For the kinetic experiments, the AEA: fatty acid-free bovine serum albumin ratio was kept constant at 1: ~4.5 (μM). Following incubation, reactions were stopped by addition of 400 μL activated charcoal (80 μL activated charcoal + 320 μL 0.5 M HCl) and placement of samples on ice before centrifugation at 2500 rpm for 10 min. Aliquots (200 μL) of the supernatant were analyzed for tritium content by liquid scintillation spectroscopy with quench correction. Sample sizes were chosen on the basis of previous data investigating FAAH inhibitory properties of compounds.
(§3) pI50 and IC50 values were calculated using log(inhibitor) vs. response with variable slope (four parameters) algorithm in the GraphPad Prism computer program (GraphPad Software Inc., San Diego, CA. USA). […] The best fit was chosen by Akaike’s informative criteria. Ki and α values were obtained using the enzyme kinetics mixed model inhibition curve fitting algorithm available in the GraphPad Prism programme. This models the observed velocity v^app at a given substrate concentration where v^app = Vmax ^app/(1 + Km ^app/[S]), Vmax ^app = Vmax/(1+[I]/(αKi)) and Km ^app = Km(1+[I]/Ki)/(1+[I]/(αKi)) (http://www.graphpad.com/guides/prism/6/curve-fitting/index.htm?reg_mixered_model.htm, URL checked 16 October 2015). The model assuming competitive interactions (where α→∞) was also used, and the best fit was chosen by Akaike’s informative criteria. Robust linear regressions for the Dixon plots, which are less sensitive to outliers than the standard least-squares methodology were undertaken using the same computer programme.

In the next experiment the target is T2, mouse brain FAAH (Mus musculus, UniProt O08914).
T2 construct: from tissue; host or cells: mouse brain (minus cerebellum), washed membrane pellet
T2 sequence (O08914 1-579): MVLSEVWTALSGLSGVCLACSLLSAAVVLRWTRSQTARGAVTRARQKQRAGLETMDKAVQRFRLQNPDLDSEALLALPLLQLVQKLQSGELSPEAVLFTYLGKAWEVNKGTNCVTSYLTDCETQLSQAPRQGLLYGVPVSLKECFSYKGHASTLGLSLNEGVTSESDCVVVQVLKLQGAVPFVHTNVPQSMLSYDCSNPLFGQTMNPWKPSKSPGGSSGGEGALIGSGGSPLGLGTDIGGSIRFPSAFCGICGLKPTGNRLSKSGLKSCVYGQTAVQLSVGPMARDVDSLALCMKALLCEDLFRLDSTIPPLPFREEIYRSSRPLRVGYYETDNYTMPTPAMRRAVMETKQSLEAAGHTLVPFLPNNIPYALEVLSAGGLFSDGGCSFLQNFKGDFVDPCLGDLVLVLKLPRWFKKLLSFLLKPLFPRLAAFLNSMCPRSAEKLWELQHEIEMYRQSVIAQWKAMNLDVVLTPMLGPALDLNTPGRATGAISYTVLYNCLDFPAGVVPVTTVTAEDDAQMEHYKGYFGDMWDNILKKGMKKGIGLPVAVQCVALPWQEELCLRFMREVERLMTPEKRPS
Put plainly: Inhibition of [3H]AEA hydrolysis in mouse brain homogenates. The class given is biochemical. The following applies: 0.5 μM [3H]AEA. The procedure:
as §1, §2, §3

`Cc1cccnc1NC(=O)[C@H](C)c1ccc(-c2ccccc2)c(F)c1` [(R)-Flu-AM1, (R)-2-(2-fluorobiphenyl-4-yl)-N-(3-methylpyridin-2-yl)propanamide]: the remaining activity at 0.7 µM is 50 ± 1% at rat brain FAAH (preincubation 0 min at 37°C) and 39 ± 4% at rat brain FAAH (preincubation 60 min at 37°C). Moreover, at rat brain FAAH (0.5–4 μM [3H]AEA, compared with pure competitive model), the “mode of inhibition (best-fit model)” value is recorded as “linear mixed inhibition”. Also, at rat brain FAAH (20-fold dilution after 60 min of preincubation), the reversibility of inhibition entry is listed as “completely reversible”. For the same molecule, the “interaction with carprofen in multiple inhibition experiments” value at rat brain FAAH (Dixon plots, 0.5 μM [3H]AEA, together with carprofen) was “mutually exclusive manner”. Moreover, the α on rat brain FAAH (linear mixed inhibition model fit, 0.5–4 μM [3H]AEA) was 3.2±1.3. The inhibition constant (Ki) on rat brain FAAH (linear mixed inhibition model fit, 0.5–4 μM [3H]AEA, read-out: Ki) was found to be 630 ± 170 nM; at rat brain FAAH (median of Dixon plot intersections, 0.5–4 μM [3H]AEA, read-out: Ki (Dixon plot)), 280 nM. In addition, the “nH (Hill slope)” value worked out at 0.90±0.04 at rat brain FAAH (rat brain homogenates, 0.5 μM [3H]AEA) and 0.78±0.09 at mouse brain FAAH. In addition, the IC50 at rat brain FAAH (rat brain homogenates, 0.5 μM [3H]AEA, read-out: IC50) was 740 nM; on rat brain FAAH (rat brain homogenates, 0.5 μM [3H]AEA, read-out: pI50 (converted)) it was 741 nM.

Values taken from article PMC4643906, “Interaction of the N-(3-Methylpyridin-2-yl)amide Derivatives of Flurbiprofen and Ibuprofen with FAAH: Enantiomeric Selectivity and Binding Mode” (PLoS ONE, 2015).
